Measurements taken from US20220119355A1, “SATURATED-RING-FUSED DIHYDROPYRIMIDINONE OR DIHYDROTRIAZINONE COMPOUNDS AND PHARMACEUTICAL USE THEREOF” (Japan Tobacco Inc., priority 2018, published 2022).

Key:
human RORγ = molecular target: T1, human RORγ (Homo sapiens, UniProt P51449); test: In-vitro reporter gene assay for inhibitory activity against RORγ transcription, Test Method A (GAL4-hRORγ LBD / pG5-Luc in CHO cells); type: cell-based; settings: luciferase reporter, 2 days
T1 construct: from Ser253 to Lys518 for human RORγ; expressed in transfected cells; host or cells: CHO cells (transient co-transfection with pG5-Luc)
T1 sequence (P51449 253-518): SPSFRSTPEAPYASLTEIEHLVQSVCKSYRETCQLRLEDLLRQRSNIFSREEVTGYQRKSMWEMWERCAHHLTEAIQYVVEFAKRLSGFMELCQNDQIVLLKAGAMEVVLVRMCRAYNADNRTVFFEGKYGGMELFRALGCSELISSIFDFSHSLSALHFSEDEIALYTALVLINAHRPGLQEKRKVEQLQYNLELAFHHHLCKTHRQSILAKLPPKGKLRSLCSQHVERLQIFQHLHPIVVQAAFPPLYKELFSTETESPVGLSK
Method: (§1) In-Vitro Assay for Inhibitory Activity Against RORγ Transcription
(§2) Inhibitory activity against RORγ transcription was assessed for test compounds by either of the following Test Method A or B of reporter gene assay.
(§3) cDNAs encoding human and mouse RORγ ligand binding domains (LBD) were obtained based on the sequences of human RORγ (Genbank registered number NM_005060.3) and mouse RORγ (Genbank registered number NM_011281.2) (LBD sequences: from Ser253 to Lys518 for human RORγ; from Ile251 to Lys516 for mouse RORγ).
(§4) LBD cDNAs of human and mouse RORγ were inserted into pFA-CMV vector (Stratagene), which expresses GAL4-DNA binding domain fusion protein. The resulting plasmids are hereinafter referred to as GAL4-hRORγ plasmid and GAL4-mRORγ plasmid, respectively.
(§5) GAL4-hRORγ plasmid or GAL4-mRORγ plasmid was transiently co-transfected into Chinese hamster ovary cells (CHO cells) with pG5-Luc (Promega), reporter plasmid expressing firefly luciferase in a GAL4-dependent manner.
(§6) TransIT (Registered trademark) CHO Transfection Kit (Mirus) was used to co-transfect CHO cells with the plasmids. One day prior to the assay, CHO cells were suspended in HAM F-12 Nutrient medium containing 10% (v/v) fetal bovine serum and seeded at 6×10^6 cells per 175 cm^2 cell culture flask each. 54 μL of TransIT (Registered trademark) CHO reagent was added into a 15 mL tube containing 1.16 mL of HAM F-12 Nutrient medium without fetal bovine serum, and then mixed and incubated at room temperature for 10 minutes. 36 μL of a plasmid solution containing 400 ng of GAL4-hRORγ plasmid, 9000 ng of pG5-Luc plasmid, and 8600 ng of pcDNA3 plasmid were added into the tube and mixed gently. In the case of mouse assay, a plasmid solution containing 250 ng of GAL4-mRORγ plasmid, 9000 ng of pG5-Luc plasmid, and 8750 ng of pcDNA3 plasmid was added, instead. The mixture was incubated at room temperature for 10 minutes. 9 μL each of CHO Mojo Reagent were then added into each tube and mixed gently. The mixture was incubated at room temperature for 10 minutes. The resulting transfection reagent was applied to the cell culture. After incubation at 37° C., 5% CO2 for 4 hours, the plasmid-transfected CHO cells were harvested by trypsin treatment. The collected cells were resuspended in culture medium and plated into a 384-well-white plate at 8,000 cells/50 μL/well. The plate was let stand at room temperature for 1 hour and then further incubated at 37° C., 5% CO2 for 3 hours. A test compound was dissolved in DMSO to obtain a concentration of 10 mM. Each solution was serially diluted with DMSO and further diluted with culture medium just before use. The test compound solutions were added. to the cells in the plate at 8 different concentrations. The final concentration of DMSO was 0.2% (v/v). After the addition of test compound, the cells were incubated at […], 5% CO2 for 2 days.
(§7) RORγ transcriptional activity was detected as the intracellular luciferase activity using SteadyLite HTS Reporter Gene Assay System (Perkin Elmer). SteadyLite Reagent was diluted five-fold with Extension buffer (10 mM Tricine, 0.2% (w/v) bovine serum albumin, 0.02% (v/v) Tween-20) to obtain a luciferase substrate solution. After the measurement of the cell viability with Resazurin, the medium was removed in the plate and the luciferase substrate solution was added thereto. After the incubation at room temperature for 10 minutes, luminescence of each well was measured with a microplate reader. The luciferase activity derived from the luminescence count in a vehicle-control well treated with 0.2% DMSO alone was defined as 100%, and the luciferase activity after treatment with the test compound was calculated as a percentage, %-of-control, based on the value of the vehicle-control. An EC50 value of the test compound was calculated by curve fitting with GraphPad Prism. The luminescence counts at the concentration of test compound where cytotoxicity was observed were excluded from data analysis. […]

mouse RORγ = molecular target: T2, mouse RORγ (Mus musculus, UniProt P51450); test: In-vitro reporter gene assay for inhibitory activity against RORγ transcription, Test Method A (GAL4-mRORγ LBD / pG5-Luc in CHO cells); type: cell-based; settings: luciferase reporter, 2 days
T2 construct: from Ile251 to Lys516 for mouse RORγ; expressed in transfected cells; host or cells: CHO cells (transient co-transfection with pG5-Luc)
T2 sequence (P51450 251-516): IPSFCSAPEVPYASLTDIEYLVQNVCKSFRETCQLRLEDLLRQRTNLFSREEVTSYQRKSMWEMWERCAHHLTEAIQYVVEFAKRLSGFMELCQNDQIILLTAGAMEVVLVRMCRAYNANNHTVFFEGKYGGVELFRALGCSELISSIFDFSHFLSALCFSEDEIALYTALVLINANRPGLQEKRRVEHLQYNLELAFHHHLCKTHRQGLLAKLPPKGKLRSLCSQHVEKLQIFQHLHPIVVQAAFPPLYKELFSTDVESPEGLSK
Method: as §1, §2, §3, §4, §5, §6, §7

CC(C)(C)COc1ccc(C23CCCC2=NNC(=O)N3)cc1Cl (racemic) [Example 1, 4a-[3-Chloro-4-(2,2-dimethyl-propoxy)phenyl]-2,4,4a,5,6,7-hexahydro-cyclopenta[1,2,4]triazin-3-one]
EC50 (human RORγ): 1.69 µM
EC50 (mouse RORγ): 0.536 µM

CC(C)(C)CCc1ccc(C23CCC(C)(C)C2=CN(CCCC(=O)O)C(=O)N3)cc1 (racemic) [Example 2]
EC50 (human RORγ): 0.03 µM
EC50 (mouse RORγ): 0.022 µM

CCOC(=O)CCN1C=C2CN(C(=O)OC(C)(C)C)CC2(c2ccc(CCC(C)(C)C)c(Cl)c2)NC1=O (racemic) [Example 13]
EC50 (human RORγ): 5.7 µM
EC50 (mouse RORγ): 5.37 µM

CC(=O)N1CC2=CN(CCC(=O)O)C(=O)NC2(c2ccc(CCC(C)(C)C)c(Cl)c2)C1 (racemic) [Example 14]
EC50 (human RORγ): 2.88 µM
EC50 (mouse RORγ): 3.8 µM

CC(C)(C)CCc1ccc(C23CCCC2=CNC(=O)N3)cc1Cl (racemic) [Example 23]
EC50 (human RORγ): 0.224 µM
EC50 (mouse RORγ): 0.106 µM

CC(C)(C)CCc1ccc(C23CCCC2=CN(CCC(=O)O)C(=O)N3)cc1Cl (racemic) [Example 24]
EC50 (human RORγ): 0.332 µM
EC50 (mouse RORγ): 0.126 µM

CC(=O)NCC1CCC2(c3ccc(CCC(C)(C)C)c(Cl)c3)NC(=O)N(CCC(=O)O)C=C12 (racemic) [Example 30]
EC50 (human RORγ): > 20 µM
EC50 (mouse RORγ): > 20 µM

CC(C)(C)CCc1ccc(C23CCC(CC#N)C2=CN(CCC(=O)O)C(=O)N3)cc1Cl (racemic) [Example 31]
EC50 (human RORγ): 0.048 µM
EC50 (mouse RORγ): 0.048 µM

CC(C)(C)COc1ccc(C23CCCCC2=NNC(=O)N3)cc1Cl (racemic) [Example 36]
EC50 (human RORγ): 0.435 µM
EC50 (mouse RORγ): 0.071 µM

CC(C)(C)CCc1ccc(C23CCCCC2=CN(CCC(=O)O)C(=O)N3)cc1Cl (racemic) [Example 39]
EC50 (human RORγ): 0.032 µM
EC50 (mouse RORγ): 0.021 µM

CC1=C2CCCCC2(c2ccc(CCC(C)(C)C)c(Cl)c2)NC(=O)N1CCC(=O)O (racemic) [Example 42]
EC50 (human RORγ): 0.29 µM
EC50 (mouse RORγ): 0.139 µM

CC(C)(C)CCc1ccc(C23CCCC(CCOCc4ccccc4)C2=CN(CCC(=O)O)C(=O)N3)cc1Cl (racemic) [Example 43]
EC50 (human RORγ): 0.043 µM
EC50 (mouse RORγ): 0.159 µM

CC(C)(C)CCc1ccc(C23CCCC(CCO)C2=CN(CCC(=O)O)C(=O)N3)cc1Cl (racemic) [Example 44]
EC50 (human RORγ): 1.27 µM
EC50 (mouse RORγ): 0.482 µM

CCOC(=O)CCN1C=C2C(CC(=O)O)CCCC2(c2ccc(CCC(C)(C)C)c(Cl)c2)NC1=O (racemic) [Example 45]
EC50 (human RORγ): 1.63 µM
EC50 (mouse RORγ): 0.84 µM

COCCC1CCCC2(c3ccc(CCC(C)(C)C)c(Cl)c3)NC(=O)N(CCC(=O)O)C=C12 (racemic) [Example 46]
EC50 (human RORγ): 0.302 µM
EC50 (mouse RORγ): 0.211 µM

CCOC(=O)CCN1C=C2C(CN)CCCC2(c2ccc(CCC(C)(C)C)c(Cl)c2)NC1=O (racemic) [Example 47]
EC50 (human RORγ): > 8 µM
EC50 (mouse RORγ): 8.83 µM

CC(C)(C)CCc1ccc(C23CCCC(CCOS(C)(=O)=O)C2=CN(CCC(=O)O)C(=O)N3)cc1Cl (racemic) [Example 48]
EC50 (human RORγ): 1.99 µM
EC50 (mouse RORγ): 1.87 µM

CCOC(=O)CCN1C=C2C(CCNC)CCCC2(c2ccc(CCC(C)(C)C)c(Cl)c2)NC1=O (racemic) [Example 49]
EC50 (human RORγ): > 3.2 µM
EC50 (mouse RORγ): > 3.2 µM

CCOC(=O)CCN1C=C2C(CCN(C)C)CCCC2(c2ccc(CCC(C)(C)C)c(Cl)c2)NC1=O (racemic) [Example 50]
EC50 (human RORγ): > 8 µM
EC50 (mouse RORγ): 7.48 µM

CC(C)(C)CCc1ccc(C23CCCC(CC(N)=O)C2=CN(CCC(=O)O)C(=O)N3)cc1Cl (racemic) [Example 51]
EC50 (human RORγ): 4.97 µM
EC50 (mouse RORγ): 1.8 µM

CC(C)(C)CCc1ccc(C23CCCC(CC#N)C2=CN(CCC(=O)O)C(=O)N3)cc1Cl (racemic) [Example 52]
EC50 (human RORγ): 0.018 µM
EC50 (mouse RORγ): 0.029 µM

CC(C)(C)CCc1ccc(C23CCCC(CO)C2=CN(CCC(=O)O)C(=O)N3)cc1Cl (racemic) [Example 55]
EC50 (human RORγ): 0.093 µM
EC50 (mouse RORγ): 0.058 µM

COCC1CCCC2(c3ccc(CCC(C)(C)C)c(Cl)c3)NC(=O)N(CCC(=O)O)C=C12 (racemic) [Example 56]
EC50 (human RORγ): 0.02 µM
EC50 (mouse RORγ): 0.029 µM

CC1CCCC2(c3ccc(CCC(C)(C)C)c(Cl)c3)NC(=O)N(CCC(=O)O)C=C12 (racemic) [Example 57]
EC50 (human RORγ): 0.034 µM
EC50 (mouse RORγ): 0.021 µM

CC(C)(C)CCc1ccc(C23COCCC2=CN(CCC(=O)O)C(=O)N3)cc1Cl (racemic) [Example 58]
EC50 (human RORγ): 0.033 µM
EC50 (mouse RORγ): 0.02 µM

CC(C)CCOc1ccc(C23CCCCC2=CN(CCC(=O)O)C(=O)N3)cc1Cl (racemic) [Example 59]
EC50 (human RORγ): 0.279 µM
EC50 (mouse RORγ): 0.149 µM

CC(C)(C)COc1ccc(C23CCCCC2=CN(CCC(=O)O)C(=O)N3)cc1Cl (racemic) [Example 60]
EC50 (human RORγ): 0.118 µM
EC50 (mouse RORγ): 0.072 µM

CC(C)(C)CCOc1ccc(C23CCCCC2=CN(CCC(=O)O)C(=O)N3)cc1Cl (racemic) [Example 61]
EC50 (human RORγ): 0.106 µM
EC50 (mouse RORγ): 0.068 µM

O=C(O)CCN1C=C2CCCCC2(c2ccc(OCCC3CCC3)c(Cl)c2)NC1=O (racemic) [Example 62]
EC50 (human RORγ): 0.151 µM
EC50 (mouse RORγ): 0.099 µM

CC(C)(C)CCc1ccc(C23CCC(F)(F)CC2=CN(CCC(=O)O)C(=O)N3)cc1Cl (racemic) [Example 63]
EC50 (human RORγ): 0.022 µM
EC50 (mouse RORγ): 0.022 µM

CC(C)(C)CCc1ccc(C23CC(C)(C)CCC2=CN(CCC(=O)O)C(=O)N3)cc1Cl (racemic) [Example 64]
EC50 (human RORγ): 0.034 µM
EC50 (mouse RORγ): 0.052 µM

O=C(O)CCN1C=C2CCCCC2(c2ccc(OCC3(C(F)(F)F)CC3)c(Cl)c2)NC1=O (racemic) [Example 65]
EC50 (human RORγ): 1.16 µM
EC50 (mouse RORγ): 0.16 µM

CC1CCCC2(c3ccc(CCC(C)(C)C)c(Cl)c3)NC(=O)N(C34CC(C(=O)O)(C3)C4)C=C12 (racemic) [Example 73]
EC50 (human RORγ): 0.014 µM
EC50 (mouse RORγ): 0.027 µM

CC(C)(C)CCc1ccc(C23CCC(C)(C)CC2=CN(CCC(=O)O)C(=O)N3)cc1Cl (racemic) [Example 74]
EC50 (human RORγ): 0.016 µM
EC50 (mouse RORγ): 0.024 µM

CC(C)(C)CCc1ccc(C23CCC(C)(C)C2=CN(CCC(=O)O)C(=O)N3)cc1Cl (single isomer, unassigned) [Example 3, 3-{7a-[3-Chloro-4-(3,3-dimethyl-butyl)phenyl]-5,5-dimethyl-2-oxo-1,2,5,6,7,7a-hexahydro-cyclopentapyrimidin-3-yl}propionate]
EC50 (human RORγ): 0.008 µM
EC50 (mouse RORγ): 0.013 µM

CC(C)(C)CCc1ccc(C23CCC(C)(C)C2=CN(CCC(=O)O)C(=O)N3)cc1Cl (single isomer, unassigned) [Example 4]
EC50 (human RORγ): 1.02 µM
EC50 (mouse RORγ): 1.01 µM
